The record followed here is patent US7585874B2, “Aryl-isoxazol-4-yl-imidazo[1,2-a]pyridine derivatives” (Hoffmann-La Roche Inc., priority 2006, dated 2009).

The test concerns the target T1, GABA A receptor α5β3γ2 (Homo sapiens, UniProt P18507+P31644).
T1 construct: expressed in transfected cells; host or cells: HEK293 (transiently transfected; membranes)
In words: [3H]flumazenil competition binding, membranes of HEK293 cells expressing human GABA A α5β3γ2. The note with it: human α5β3γ2 in HEK293 (transiently transfected); 0.5 nM [3H]flumazenil; 1 hour at 4° C.; means of two determinations; read-out: Ki[nM]hα5. The method, then: The affinity of compounds at GABA A receptor subtypes was measured by competition for [3H]flumazenil (85 Ci/mmol; Roche) binding to HEK293 cells expressing rat (stably transfected) or human (transiently transfected) receptors of composition α1β3γ2, α2β3γ2, α3β3γ2 and α5β3γ2.
Cell pellets were suspended in Krebs-tris buffer (4.8 mM KCl, 1.2 mM CaCl2, 1.2 mM MgCl2, 120 mM NaCl, 15 mM Tris; pH 7.5; binding assay buffer), homogenized by polytron for ca. 20 sec on ice and centrifuged for 60 min at 4° C. (50000 g; Sorvall, rotor: SM24=20000 rpm). The cell pellets were resuspended in Krebs-tris buffer and homogenized by polytron for ca. 15 sec on ice. Protein was measured (Bradford method, Bio-Rad) and aliquots of 1 mL were prepared and stored at −80° C.
Radioligand binding assays were carried out in a volume of […] (96-well plates) which contained […] of cell membranes, [3H]flumazenil at a concentration of 1 nM for α1, α2, α3 subunits and 0.5 nM for α5 subunits and the test compound in the range of […]. Nonspecific binding was defined by 10^−5 M diazepam and typically represented less than 5% of the total binding. Assays were incubated to equilibrium for 1 hour at 4° C. and harvested onto GF/C uni-filters (Packard) by filtration using a Packard harvester and washing with ice-cold wash buffer 50 mM Tris; pH 7.5). After drying, filter-retained radioactivity was detected by liquid scintillation counting. Ki values were calculated using Excel-Fit (Microsoft) and are the means of two determinations.

A word on the Ki: it is a measure of affinity in units of concentration, obtained from inhibition or displacement. With `Cc1onc(-c2ccccc2)c1-c1cn2cc(C(=O)NC3CCCC3)ccc2n1` [Example 35, 2-(5-Methyl-3-phenyl-isoxazol-4-yl)-imidazo[1,2-a]pyridine-6-carboxylic acid cyclopentylamide], the Ki was 15.8 nM.
For the molecule `Cc1onc(-c2ccccc2)c1-c1cn2ccc(NC(=O)c3cccnc3)cc2n1` [Example 51, N-[2-(5-Methyl-3-phenyl-isoxazol-4-yl)-imidazo[1,2-a]pyridin-7-yl]-nicotinamide], the inhibition constant Ki was determined as 76.2 nM.
`Cc1onc(-c2ccccc2)c1-c1cn2cc(NC(=O)C3CCCC3)ccc2n1` [Example 59, Cyclopentanecarboxylic acid [2-(5-methyl-3-phenyl-isoxazol-4-yl)-imidazo[1,2-a]pyridin-6-yl]-amide]: the Ki turned out to be 54.7 nM.
Regarding `Cc1onc(-c2ccccc2)c1-c1cn2cc(C(=O)NC3CCOCC3)ccc2n1` [Example 37, 2-(5-Methyl-3-phenyl-isoxazol-4-yl)-imidazo[1,2-a]pyridine-6-carboxylic acid (tetrahydro-pyran-4-yl)-amide], the Ki was found to be 6.8 nM.
Take `C#Cc1ccc2nc(-c3c(-c4ccccc4)noc3C)cn2c1` [Example 53, 6-Ethynyl-2-(5-methyl-3-phenyl-isoxazol-4-yl)-imidazo[1,2-a]pyridine]: the inhibitory constant (Ki) came to 164 nM.
Take `Cc1onc(-c2ccccc2)c1-c1cn2ccc(C(=O)NC3CCC3)cc2n1` [Example 14, 2-(5-Methyl-3-phenyl-isoxazol-4-yl)-imidazo[1,2-a]pyridine-7-carboxylic acid cyclobutylamide]: the inhibition constant (Ki) is 168 nM.
Consider `Cc1onc(-c2ccccc2)c1-c1cn2ccc(C(=O)NCc3ccncc3)cc2n1` [Example 22, 2-(5-Methyl-3-phenyl-isoxazol-4-yl)-imidazo[1,2-a]pyridine-7-carboxylic acid (pyridin-4-ylmethyl)-amide], for which the Ki came to 199 nM.
In the case of `Cc1onc(-c2ccccc2)c1-c1cn2cccc(OCc3ccccc3)c2n1` [Example 6, 8-Benzyloxy-2-(5-methyl-3-phenyl-isoxazol-4-yl)-imidazo[1,2-a]pyridine] it was 23 nM; in that of `Cc1onc(-c2ccccc2)c1-c1cn2cc(-n3ccnc3)ccc2n1` [Example 66, 6-Imidazol-1-yl-2-(5-methyl-3-phenyl-isoxazol-4-yl)-imidazo[1,2-a]pyridine], 57.4 nM; in that of `Cc1onc(-c2ccccc2)c1-c1cn2cccc(Cl)c2n1` [Example 3, 8-Chloro-2-(5-methyl-3-phenyl-isoxazol-4-yl)-imidazo[1,2-a]pyridine], 126 nM.
In the case of `Cc1onc(-c2ccccc2)c1-c1cn2ccc(C(=O)NCCN3CCOCC3)cc2n1` [Example 18, 2-(5-Methyl-3-phenyl-isoxazol-4-yl)-imidazo[1,2-a]pyridine-7-carboxylic acid (2-morpholin-4-yl-ethyl)-amide] it was 159 nM.
Then `Cc1onc(-c2ccccc2)c1-c1cn2cc(NC(=O)c3cccnc3)ccc2n1` [Example 61, N-[2-(5-Methyl-3-phenyl-isoxazol-4-yl)-imidazo[1,2-a]pyridin-6-yl]-nicotinamide], with 9.4 nM; and `Cc1onc(-c2ccccc2)c1-c1cn2cc(N)ccc2n1` [Example 54, 2-(5-Methyl-3-phenyl-isoxazol-4-yl)-imidazo[1,2-a]pyridin-6-ylamine], with 88.1 nM; and `Cc1onc(-c2ccccc2)c1-c1cn2cc(-n3cccn3)ccc2n1` [Example 65, 2-(5-Methyl-3-phenyl-isoxazol-4-yl)-6-pyrazol-1-yl-imidazo[1,2-a]pyridine], with 41.1 nM.
As to `Cc1onc(-c2ccccc2)c1-c1cn2cccc(O)c2n1` [Example 5, 2-(5-Methyl-3-phenyl-isoxazol-4-yl)-imidazo[1,2-a]pyridin-8-ol], the Ki stood at 20.2 nM.
Consider `Cc1onc(-c2ccccc2)c1-c1cn2cc(I)ccc2n1` [Example 52, 6-Iodo-2-(5-methyl-3-phenyl-isoxazol-4-yl)-imidazo[1,2-a]pyridine], for which the inhibition constant Ki is 143 nM.
